Assay results from ChEMBL document CHEMBL1201862, “PubChem BioAssay data set” (2004).
Active and inactive are the calls of the source.

What was measured:
Cytochrome P450 2D6 = Cytochrome P450 2D6 (Homo sapiens, UniProt P10635);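 note: CYP2D6 member of a cytochrome P450 panel assay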
Cytochrome P450 3A4 [1] = molecular target: T1, Cytochrome P450 3A4 (Homo sapiens, UniProt P08684);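 note: CYP3A4 tested as one member of a cytochrome P450 panel screen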
Cytochrome P450 2C19 = Cytochrome P450 2C19 (Homo sapiens, UniProt P33261); assay: Cytochrome panel assay with activity outcomes. Panel member name: p450-cyp2c19 Compounds with AC50 equal or less than 10 uM are considered active; type: functional
[2] = A Cell Based Secondary Assay To Explore Cytotoxicity of Compounds that Sensitize Mycobacterium Tuberculosis to Beta-Lactam Antibiotics.; type: functional
Insulin-degrading enzyme [3] = molecular target: T2, Insulin-degrading enzyme (Homo sapiens, UniProt P14735); assay: activators of recombinant IDE enzyme, dose response, counter-screen for IDE activator project, biochemical, fluorescence polarization (AID 588681)
T2 sequence (P14735 whole entry): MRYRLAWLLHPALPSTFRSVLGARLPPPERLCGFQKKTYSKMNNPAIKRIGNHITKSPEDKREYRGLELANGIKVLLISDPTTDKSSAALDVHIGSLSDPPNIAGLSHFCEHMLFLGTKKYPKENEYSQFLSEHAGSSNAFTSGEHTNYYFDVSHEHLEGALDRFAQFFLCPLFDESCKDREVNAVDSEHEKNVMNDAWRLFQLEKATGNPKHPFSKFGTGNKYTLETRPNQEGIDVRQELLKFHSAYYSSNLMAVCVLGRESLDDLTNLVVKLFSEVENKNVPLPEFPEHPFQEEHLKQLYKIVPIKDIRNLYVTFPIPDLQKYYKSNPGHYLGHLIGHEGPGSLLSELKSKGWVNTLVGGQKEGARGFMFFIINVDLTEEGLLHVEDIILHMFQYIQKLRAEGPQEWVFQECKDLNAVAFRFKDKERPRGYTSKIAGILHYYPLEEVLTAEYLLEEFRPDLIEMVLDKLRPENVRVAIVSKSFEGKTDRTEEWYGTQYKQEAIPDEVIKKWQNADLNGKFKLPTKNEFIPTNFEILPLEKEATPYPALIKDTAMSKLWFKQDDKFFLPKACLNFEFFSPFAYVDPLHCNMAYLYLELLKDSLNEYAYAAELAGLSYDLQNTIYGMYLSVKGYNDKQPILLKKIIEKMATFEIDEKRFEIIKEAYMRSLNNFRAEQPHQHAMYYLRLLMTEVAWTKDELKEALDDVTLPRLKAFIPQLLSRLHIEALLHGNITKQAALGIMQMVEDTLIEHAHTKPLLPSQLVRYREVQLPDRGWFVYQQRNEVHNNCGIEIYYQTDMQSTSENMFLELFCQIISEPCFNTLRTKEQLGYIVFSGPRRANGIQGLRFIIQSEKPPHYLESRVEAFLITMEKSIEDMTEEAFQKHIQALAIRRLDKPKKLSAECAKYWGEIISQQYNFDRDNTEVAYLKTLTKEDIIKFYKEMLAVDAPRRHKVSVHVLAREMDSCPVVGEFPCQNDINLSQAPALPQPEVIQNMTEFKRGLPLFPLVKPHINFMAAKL

Melanocortin receptor 4 = Melanocortin receptor 4 (Homo sapiens, UniProt P32245); type: functional, cell-based;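 note: Cell-based assay with luminescence read-out, confirmatory dose-response testing for agonist activity of biased ligands at MC4R; human U2OS cells with tagged receptor and beta-arrestin; potency of agonists that increase receptor coupling to beta-arrestin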
Insulin-degrading enzyme [4] = molecular target: T2, Insulin-degrading enzyme; assay: activators of endogenous IDE in HEK cells, dose response, cell-based, fluorescence polarization (AID 588439); type: functional
HEK293 [5] = assay: HEK cell cytotoxicity by LDH release, dose response, cytotoxicity control for IDE activator project, fluorescence, HEK cells (AID 588440); type: functional, cell-based; details: Homo sapiens;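 note: cytotoxicity by LDH release measuring loss of membrane integrity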
HEK293 [6] = assay: optical interference in Abeta FP readout, dose response, artefact control for IDE activator project, biochemical, fluorescence polarization (AID 588442); type: functional, cell-based; details: Homo sapiens
Vero = assay: cells; type: functional; details: Chlorocebus sabaeus
[7] = Luminescence Cell-Based Dose Confirmation HTS to Identify Activators of 5'UTR Stem-Loop Driven Alpha-Synuclein mRNA Translation in H4 Neuroglioblastoma Cells. [Related pubchem assays: 1829 (Project Summary), 1814 (Primary HTS)]; type: functional
HEK293 [8] = assay: cells; details: Homo sapiens
[9] = molecular target: DNA damage-inducible transcript 3 protein (Mus musculus, UniProt P35639); type: functional, Cricetulus griseus
HEK293 [10] = assay: cells; details: Homo sapiens; remark: listed apart in the source
[11] = Luminescence Cell-Based Dose Response HTS to Identify Activators of Luciferase Translation or Activity in H4 […] Cells. [Related pubchem assays: 1829 (Project Summary), 1814 (Primary HTS)]; type: functional
[12] = molecular target: Dual specificity tyrosine-phosphorylation-regulated kinase 1A (Rattus norvegicus, UniProt Q63470); type: biochemical, Homo sapiens
X-box-binding protein 1 = X-box-binding protein 1 (Homo sapiens, UniProt P17861); type: functional, Cricetulus griseus;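 note: confirmatory dose-response counter-screen serving a CHOP assay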
H4 = assay: Luminescence Cell-Based Dose Response HTS to Identify Activators of 5'UTR Stem-Loop Driven Prion Protein mRNA Translation in H4 Neuroglioblastoma Cells. [Related pubchem assays: 1829 (Project Summary), 1814 (Primary HTS)]; type: functional; details: Homo sapiens
HeLa = assay: HeLa cell cytotoxicity, dose response, cytotoxicity control for MITF activator project, CellTiter-Glo luminescence, cherry-pick samples (AID 540259); type: functional, cell-based; details: Homo sapiens
Cytochrome P450 3A4 [13] = molecular target: T1, Cytochrome P450 3A4; remark: listed apart in the source
Cytochrome P450 2C9 = Cytochrome P450 2C9 (Homo sapiens, UniProt P11712)
[14] = molecular target: Adenosylmethionine-8-amino-7-oxononanoate aminotransferase (Mycobacterium tuberculosis, UniProt P9WQ81); assay: Mycobacterium tuberculosis BioA enzyme inhibitor Measured in Biochemical System Using Plate Reader - 2163-02_Inhibitor_Dose_CherryPick_Activity.; type: functional, Mycobacterium tuberculosis UT205
[15] = CAL PDZ domain peptide-binding inhibitors, dose response, biochemical, fluorescence polarization, untagged CAL PDZ, cherry-pick, set 2 (AID 602254); type: functional

Sequence of Cytochrome P450 2D6 (P10635 whole entry): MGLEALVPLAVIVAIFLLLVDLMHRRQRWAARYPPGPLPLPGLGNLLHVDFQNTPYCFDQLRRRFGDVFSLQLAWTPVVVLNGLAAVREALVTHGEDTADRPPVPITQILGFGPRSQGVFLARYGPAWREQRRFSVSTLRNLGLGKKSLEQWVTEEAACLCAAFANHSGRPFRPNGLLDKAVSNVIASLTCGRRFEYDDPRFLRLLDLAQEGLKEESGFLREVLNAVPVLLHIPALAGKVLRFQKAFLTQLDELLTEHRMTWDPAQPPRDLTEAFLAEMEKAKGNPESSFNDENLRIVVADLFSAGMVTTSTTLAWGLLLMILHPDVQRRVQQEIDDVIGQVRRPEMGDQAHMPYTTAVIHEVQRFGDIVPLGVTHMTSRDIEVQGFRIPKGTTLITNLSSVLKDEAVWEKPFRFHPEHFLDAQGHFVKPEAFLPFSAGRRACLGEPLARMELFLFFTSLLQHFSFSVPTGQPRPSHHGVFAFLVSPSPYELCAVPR
Sequence of Cytochrome P450 2C19 (P33261 whole entry): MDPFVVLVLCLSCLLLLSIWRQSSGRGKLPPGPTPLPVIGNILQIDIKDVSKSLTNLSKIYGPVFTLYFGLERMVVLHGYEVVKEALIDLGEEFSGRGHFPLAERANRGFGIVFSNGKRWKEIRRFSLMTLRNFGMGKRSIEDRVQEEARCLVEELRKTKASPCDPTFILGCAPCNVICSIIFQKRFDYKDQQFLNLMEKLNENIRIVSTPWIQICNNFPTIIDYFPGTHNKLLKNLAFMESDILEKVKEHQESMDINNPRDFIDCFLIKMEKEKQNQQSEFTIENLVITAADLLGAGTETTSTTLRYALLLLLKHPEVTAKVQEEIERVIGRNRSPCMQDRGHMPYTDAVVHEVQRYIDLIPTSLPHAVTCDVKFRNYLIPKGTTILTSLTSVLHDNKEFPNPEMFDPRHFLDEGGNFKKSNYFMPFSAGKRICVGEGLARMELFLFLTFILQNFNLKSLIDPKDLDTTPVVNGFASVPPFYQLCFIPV
T1 sequence (P08684 whole entry): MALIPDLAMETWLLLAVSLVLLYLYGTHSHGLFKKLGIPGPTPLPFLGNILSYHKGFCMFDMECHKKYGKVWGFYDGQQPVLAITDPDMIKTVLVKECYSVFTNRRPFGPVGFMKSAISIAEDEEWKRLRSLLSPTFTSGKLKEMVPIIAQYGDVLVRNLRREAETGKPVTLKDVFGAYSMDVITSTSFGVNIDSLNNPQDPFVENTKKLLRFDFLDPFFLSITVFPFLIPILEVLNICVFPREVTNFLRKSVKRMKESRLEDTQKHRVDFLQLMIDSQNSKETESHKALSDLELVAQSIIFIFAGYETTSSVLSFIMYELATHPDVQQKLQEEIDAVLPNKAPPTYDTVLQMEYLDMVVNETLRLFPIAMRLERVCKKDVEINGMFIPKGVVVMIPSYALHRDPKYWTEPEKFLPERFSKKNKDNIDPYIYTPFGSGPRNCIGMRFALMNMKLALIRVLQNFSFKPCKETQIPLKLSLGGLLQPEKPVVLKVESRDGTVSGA
Sequence of Adenosylmethionine-8-amino-7-oxononanoate aminotransferase (P9WQ81 whole entry, the tested form may be a part): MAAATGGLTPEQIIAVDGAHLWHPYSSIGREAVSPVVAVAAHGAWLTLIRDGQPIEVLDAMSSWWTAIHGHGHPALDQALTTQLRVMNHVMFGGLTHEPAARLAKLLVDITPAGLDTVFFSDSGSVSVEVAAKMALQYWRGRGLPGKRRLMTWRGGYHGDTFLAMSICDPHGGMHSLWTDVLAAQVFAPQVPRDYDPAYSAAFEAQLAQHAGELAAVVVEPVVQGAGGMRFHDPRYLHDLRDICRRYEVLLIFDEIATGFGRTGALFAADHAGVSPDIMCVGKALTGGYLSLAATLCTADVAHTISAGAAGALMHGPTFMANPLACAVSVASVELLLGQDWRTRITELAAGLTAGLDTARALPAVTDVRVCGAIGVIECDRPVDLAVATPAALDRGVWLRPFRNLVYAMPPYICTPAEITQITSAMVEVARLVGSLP
Sequence of X-box-binding protein 1 (P17861 whole entry): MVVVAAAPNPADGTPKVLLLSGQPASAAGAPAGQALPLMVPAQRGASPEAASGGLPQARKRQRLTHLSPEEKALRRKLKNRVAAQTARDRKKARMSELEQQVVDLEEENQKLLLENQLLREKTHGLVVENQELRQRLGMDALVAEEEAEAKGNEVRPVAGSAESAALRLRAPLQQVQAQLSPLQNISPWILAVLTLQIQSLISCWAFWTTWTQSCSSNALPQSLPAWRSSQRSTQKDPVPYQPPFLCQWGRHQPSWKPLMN
Sequence of Cytochrome P450 2C9 (P11712 whole entry): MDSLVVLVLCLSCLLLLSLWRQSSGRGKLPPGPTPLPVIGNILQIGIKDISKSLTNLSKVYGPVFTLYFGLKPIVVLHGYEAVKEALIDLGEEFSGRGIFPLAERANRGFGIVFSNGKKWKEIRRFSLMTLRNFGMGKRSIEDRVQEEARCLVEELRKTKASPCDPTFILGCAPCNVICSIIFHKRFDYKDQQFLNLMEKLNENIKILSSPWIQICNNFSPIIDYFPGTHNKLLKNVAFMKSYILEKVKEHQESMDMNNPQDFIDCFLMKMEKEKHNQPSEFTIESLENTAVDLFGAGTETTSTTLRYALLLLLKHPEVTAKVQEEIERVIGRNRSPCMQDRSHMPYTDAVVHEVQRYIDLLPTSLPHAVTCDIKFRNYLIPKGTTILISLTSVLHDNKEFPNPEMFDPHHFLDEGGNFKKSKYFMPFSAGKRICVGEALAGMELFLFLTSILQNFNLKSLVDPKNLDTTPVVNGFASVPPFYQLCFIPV
Sequence of DNA damage-inducible transcript 3 protein (P35639 whole entry): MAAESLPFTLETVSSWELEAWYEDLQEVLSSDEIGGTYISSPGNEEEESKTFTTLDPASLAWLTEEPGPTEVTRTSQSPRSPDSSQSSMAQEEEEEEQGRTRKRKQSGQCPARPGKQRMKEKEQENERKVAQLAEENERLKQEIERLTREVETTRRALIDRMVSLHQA
Sequence of Melanocortin receptor 4 (P32245 whole entry): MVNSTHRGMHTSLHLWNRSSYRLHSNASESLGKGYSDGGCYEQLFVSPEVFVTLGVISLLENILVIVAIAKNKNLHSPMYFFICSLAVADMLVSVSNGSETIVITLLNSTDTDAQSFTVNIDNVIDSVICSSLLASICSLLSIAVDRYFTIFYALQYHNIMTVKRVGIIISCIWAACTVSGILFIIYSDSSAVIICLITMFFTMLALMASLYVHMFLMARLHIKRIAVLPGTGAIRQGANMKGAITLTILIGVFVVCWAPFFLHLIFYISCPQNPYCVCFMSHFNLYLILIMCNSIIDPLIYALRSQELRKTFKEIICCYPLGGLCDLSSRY

COc1cccc(NC(=O)CSc2nc3c(c(-c4ccco4)c2C#N)CCCC3)c1
AC50 (Cytochrome P450 2D6): inconclusive
AC50 (Cytochrome P450 3A4 [1]): inconclusive
AC50 (Cytochrome P450 2C19): inconclusive

Cc1cc(C)c2sc(N(CCCN(C)C)C(=O)COc3ccc(Cl)cc3)nc2c1
CC50 [2]: > 40 µM (active)
EC50 (Insulin-degrading enzyme [3]): > 54.7 µM (inactive)
EC50 (Melanocortin receptor 4): > 89.2 µM (inactive)
EC50 (Insulin-degrading enzyme [4]): > 54.7 µM (inactive)
IC50 (HEK293 [5]): 26.2 µM (inactive)
EC50 (HEK293 [6]): > 55.9 µM (inactive)

COc1ccc(/C=C(/C(=O)c2cccs2)N2C=CC=CC2=C(C#N)C#N)cc1
CC50 (Vero): > 25 µM (active)
EC50 [7]: > 120 µM (not active)
EC50 (HEK293 [8]): > 59.6 µM (inactive)
Absolute IC50 (CHOP) [9]: 10 µM
EC50 (HEK293 [10]): > 59.6 µM (inactive)
EC50 [11]: > 120 µM (not active)
AC50 [12]: 8.18 µM (active)
Absolute IC50 (XBP1) (X-box-binding protein 1): 10 µM
EC50 (H4): > 120 µM (not active)

COc1ccc(C(=O)c2c[nH]c3ccccc23)cc1
AC50 (HeLa): 41.9 µM (active)

CCCCNC(=O)c1cc2nc3c(c(C(F)(F)F)n2n1)CCc1ccccc1-3
AC50 (Cytochrome P450 2D6): inconclusive
AC50 (Cytochrome P450 3A4 [13]): 7.94 µM (inconclusive)
AC50 (Cytochrome P450 2C19; read-out: AC50): 15.8 µM (inconclusive)
AC50 (Cytochrome P450 2C9): 0.398 µM (inconclusive)

O=c1c2ccccc2oc2c1ccc1ccccc12
AC50 (HeLa): 32.3 µM (active)

CC(=O)c1ccc(C(=O)NC2CCCN(Cc3ccccc3F)C2)s1 (stereo unspecified)
AC50 [14]: 4.26 µM (active)

COc1cc(NC(=O)C2CCCN(S(=O)(=O)c3cccc4nsnc34)C2)cc(OC)c1 (stereo unspecified)
AC50 [15]: 118 µM (active)
